Here are results for 14 compounds from patent US9938260B2, “Soluble guanylate cyclase activators and their use” (GlaxoSmithKline Intellectual Property Development Limited, priority 2014, dated 2018).

Counter-ions that a name gives are not always drawn.

In the test the target is T1, soluble guanylate cyclase (sGC) (Rattus norvegicus, UniProt P20595).
T1 construct: endogenous in cells; host or cells: primary rat aortic smooth muscle cells
T1 sequence (P20595 1-619): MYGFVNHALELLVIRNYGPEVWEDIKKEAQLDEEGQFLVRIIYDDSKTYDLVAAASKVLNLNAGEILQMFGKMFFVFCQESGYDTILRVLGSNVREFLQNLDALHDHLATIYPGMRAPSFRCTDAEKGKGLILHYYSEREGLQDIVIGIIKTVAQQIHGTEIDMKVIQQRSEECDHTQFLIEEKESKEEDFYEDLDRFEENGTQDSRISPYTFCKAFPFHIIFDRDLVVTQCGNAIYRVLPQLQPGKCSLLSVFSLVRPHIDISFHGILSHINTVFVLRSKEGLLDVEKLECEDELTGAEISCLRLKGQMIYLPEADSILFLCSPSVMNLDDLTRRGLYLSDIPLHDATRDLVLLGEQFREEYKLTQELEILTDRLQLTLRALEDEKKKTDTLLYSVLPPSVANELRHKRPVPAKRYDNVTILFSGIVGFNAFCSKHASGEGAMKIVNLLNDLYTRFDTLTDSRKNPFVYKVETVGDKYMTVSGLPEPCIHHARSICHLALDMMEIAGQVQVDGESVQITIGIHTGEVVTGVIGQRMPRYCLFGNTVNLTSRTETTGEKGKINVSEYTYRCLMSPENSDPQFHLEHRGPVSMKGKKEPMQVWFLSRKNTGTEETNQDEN
T1 sequence (P19686 1-690 partner): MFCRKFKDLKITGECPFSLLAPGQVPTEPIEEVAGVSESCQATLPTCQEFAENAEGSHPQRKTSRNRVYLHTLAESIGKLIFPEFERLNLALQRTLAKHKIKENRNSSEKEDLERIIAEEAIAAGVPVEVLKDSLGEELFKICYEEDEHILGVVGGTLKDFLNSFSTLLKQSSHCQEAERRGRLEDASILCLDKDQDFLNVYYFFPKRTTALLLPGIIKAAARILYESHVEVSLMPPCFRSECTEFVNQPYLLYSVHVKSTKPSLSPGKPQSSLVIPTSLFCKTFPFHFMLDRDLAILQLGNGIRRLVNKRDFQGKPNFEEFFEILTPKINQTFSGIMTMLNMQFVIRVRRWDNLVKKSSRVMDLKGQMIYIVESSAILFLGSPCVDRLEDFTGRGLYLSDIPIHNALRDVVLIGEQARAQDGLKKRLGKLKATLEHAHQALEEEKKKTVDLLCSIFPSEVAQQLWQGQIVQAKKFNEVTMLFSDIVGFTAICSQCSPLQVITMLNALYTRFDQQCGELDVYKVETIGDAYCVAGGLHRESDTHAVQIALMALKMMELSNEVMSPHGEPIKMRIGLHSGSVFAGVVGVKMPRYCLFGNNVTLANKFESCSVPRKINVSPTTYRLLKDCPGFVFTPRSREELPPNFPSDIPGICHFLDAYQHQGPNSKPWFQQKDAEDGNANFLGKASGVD
The test can be described thus: Biological cellular assay: sGC activity by phosphorylation of VASP in rat aortic smooth muscle cells. Format: cell-based. The conditions noted are these: primary rat aortic smooth muscle cells, pre-incubated with 10 μM ODQ, 30 min at 37° C., phospho-VASP (pSer239) fluorescent signal; read-out: Cell assay pEC50 (converted). As to the method: The activity of soluble guanylate cyclase (sGC) was tested in an assay based on measuring phosphorylation of the protein kinase G (PKG) substrate vasodilator-stimulated phosphoprotein (VASP) in rat aortic smooth muscle cells. […] Dimethylsulfoxide (DMSO) vehicle and varying concentrations of the compound to be tested were then added. Following a 30 min incubation at 37° C., media was aspirated and the cells were rinsed with phosphate-buffered saline (PBS) and fixed with 4% formaldehyde in PBS by incubating at room temperature for 20 min. Cells were then washed with PBS and permeabilized for 10 min using 0.1% triton X-100 in PBS. Following PBS rinsing, the cells were blocked for 90 min at room temperature with blocking buffer. The buffer was aspirated and the cells were treated overnight at 4° C. with primary antibody (pSer239-VASP, rabbit polyclonal Ab) diluted 1:500 in blocking buffer. Following three washes with 0.05% Tween 20, the cells were treated for 1 h at room temperature with a fluorescent labeled secondary antibody (IRDye® 800CW Donkey Anti-Rabbit IgG) diluted 1:2500 in blocking buffer with 0.05% Tween 20. Following two washes with PBS, infrared fluorescence was measured using an Odyssey Infrared Imaging System. The activity of a test compound was determined as the pEC50 value which is the concentration able to increase by 50% (vs. Bmax) the phospho-VASP fluorescent signal. Front. Pharmacol., 5 Jul. 2012|doi: 10.3389/fphar.2012.00128, Volume 3 July, 2012, Article number 128.
For the compound `Cc1cc(C2CCN(C(=O)CO)CC2)ccc1COc1c(F)cc(F)cc1-c1cccc(N2CCC(C(=O)O)CC2)n1` [Example 57, 1-(6-(3,5-difluoro-2-((4-(1-(2-hydroxyacetyl)piperidin-4-yl)-2-methylbenzyl)oxy)phenyl)pyridin-2-yl)piperidine-4-carboxylic acid, Sodium salt], the EC50 is 0.0794 nM.

With `COCC(=O)N1CCC(c2ccc(COc3c(F)cc(F)cc3-c3cccc(N4CCC(C(=O)O)CC4)n3)c(C)c2)CC1` [Example 60, 1-(6-(3,5-difluoro-2-((4-(1-(2-methoxyacetyl)piperidin-4-yl)-2-methylbenzyl)oxy)phenyl)pyridin-2-yl)piperidine-4-carboxylic acid, Sodium salt], the EC50 is 0.126 nM.

Regarding `Cc1cc(C2CCN(C(=O)CC#N)CC2)ccc1COc1c(F)cc(F)cc1-c1cccc(N2CCC(C(=O)O)CC2)n1` [Example 63, 1-(6-(2-((4-(1-(2-cyanoacetyl)piperidin-4-yl)-2-methylbenzyl)oxy)-3,5-difluorophenyl)pyridin-2-yl)piperidine-4-carboxylic acid, Sodium salt], the EC50 is 0.398 nM.

With `Cc1cc(C2CCN(C(=O)CC3CC3)CC2)ccc1COc1c(F)cc(F)cc1-c1cccc(N2CCC(C(=O)O)CC2)n1` [Example 66, 1-(6-(2-((4-(1-(2-cyclopropylacetyl)piperidin-4-yl)-2-methylbenzyl)oxy)-3,5-difluorophenyl)pyridin-2-yl)piperidine-4-carboxylic acid, Sodium salt], the EC50 was 0.316 nM.

Consider `Cc1cc(C2CCN(C(=O)C3CCOC3)CC2)ccc1COc1c(F)cc(F)cc1-c1cccc(N2CCC(C(=O)O)CC2)n1` (centres unmarked) [Example 69, 1-(6-(3,5-difluoro-2-((2-methyl-4-(1-(tetrahydrofuran-3-carbonyl)piperidin-4-yl)benzyl)oxy)phenyl)pyridin-2-yl)piperidine-4-carboxylic acid, Sodium salt], for which the EC50 is 0.251 nM.

Consider `Cc1cc(C2CCN(C(=O)[C@H]3CCOC3)CC2)ccc1COc1c(F)cc(F)cc1-c1cccc(N2CCC(C(=O)O)CC2)n1` [Example 72, (S)-1-(6-(3,5-difluoro-2-((2-methyl-4-(1-(tetrahydrofuran-3-carbonyl)piperidin-4-yl)benzyl)oxy)phenyl)pyridin-2-yl)piperidine-4-carboxylic acid, Sodium salt], for which the EC50 was 0.427 nM.

Regarding `Cc1cc(C2CCN(C(=O)[C@@H]3CCOC3)CC2)ccc1COc1c(F)cc(F)cc1-c1cccc(N2CCC(C(=O)O)CC2)n1` [Example 73, (R)-1-(6-(3,5-difluoro-2-((2-methyl-4-(1-(tetrahydrofuran-3-carbonyl)piperidin-4-yl)benzyl)oxy)phenyl)pyridin-2-yl)piperidine-4-carboxylic acid, Sodium salt], the EC50 is 0.0891 nM.

Regarding `Cc1cc(C2CCN(C(=O)CC3COC3)CC2)ccc1COc1c(F)cc(F)cc1-c1cccc(N2CCC(C(=O)O)CC2)n1` [Example 76, 1-(6-(3,5-difluoro-2-((2-methyl-4-(1-(2-(oxetan-3-yl)acetyl)piperidin-4-yl)benzyl)oxy)phenyl)pyridin-2-yl)piperidine-4-carboxylic acid, Sodium salt], the EC50 was 1 nM.

For the compound `Cc1cc(C2CCN(C(=O)CC3CCOC3)CC2)ccc1COc1c(F)cc(F)cc1-c1cccc(N2CCC(C(=O)O)CC2)n1` (centres unmarked) [Example 79, 1-(6-(3,5-difluoro-2-((2-methyl-4-(1-(2-(tetrahydrofuran-3-yl)acetyl)piperidin-4-yl)benzyl)oxy)phenyl)pyridin-2-yl)piperidine-4-carboxylic acid, Sodium salt], the EC50 is 1.26 nM.

As to `Cc1cc(C2CCN(C(=O)CC(=O)O)CC2)ccc1COc1c(F)cc(F)cc1-c1cccc(N2CCC(C(=O)O)CC2)n1` [Example 81, 1-(6-(2-((4-(1-(2-carboxyacetyl)piperidin-4-yl)-2-methylbenzyl)oxy)-3,5-difluorophenyl)pyridin-2-yl)piperidine-4-carboxylic acid, di-Sodium salt], the EC50 is 15.8 nM.

Regarding `Cc1cc(C2CCN(C(=O)Cn3cncn3)CC2)ccc1COc1c(F)cc(F)cc1-c1cccc(N2CCC(C(=O)O)CC2)n1` [Example 84, 1-(6-(2-((4-(1-(2-(1H-1,2,4-triazol-1-yl)acetyl)piperidin-4-yl)-2-methylbenzyl)oxy)-3,5-difluorophenyl)pyridin-2-yl)piperidine-4-carboxylic acid, Sodium salt], the EC50 was 20 nM.

As to `COc1cc(C2CCN(CC(F)(F)F)CC2)ccc1COc1c(F)cc(F)cc1-c1cccc(N2CCC(C(=O)O)CC2)n1` [Example 87, 1-(6-(3,5-difluoro-2-((2-methoxy-4-(1-(2,2,2-trifluoroethyl)piperidin-4-yl)benzyl)oxy)phenyl)pyridin-2-yl)piperidine-4-carboxylic acid, Sodium salt], the EC50 is 2.51 nM.

As for `O=C(O)C1CCN(c2cccc(-c3cc(F)cc(F)c3OCc3ccc(C4CCN(CC(F)(F)F)CC4)cc3OC3COC3)n2)CC1` [Example 90, 1-(6-(3,5-difluoro-2-((2-(oxetan-3-yloxy)-4-(1-(2,2,2-trifluoroethyl)piperidin-4-yl)benzyl)oxy)phenyl)pyridin-2-yl)piperidine-4-carboxylic acid, Sodium salt], the EC50 is 1.26 nM.

Take `Cc1cc(OC2CCN(CC(F)(F)F)CC2)ccc1COc1c(F)cc(F)cc1-c1cccc(N2CCC(C(=O)O)CC2)n1` [Example 93, 1-(6-(3,5-difluoro-2-((2-methyl-4-((1-(2,2,2-trifluoroethyl)piperidin-4-yl)oxy)benzyl)oxy)phenyl)pyridin-2-yl)piperidine-4-carboxylic acid, Sodium salt]: the EC50 is 7.94 nM.
